The values that follow come from article PMC9501810, “Bitter Peptides YFYPEL, [sequence], and [sequence], Released during Gastric Digestion of Casein, Stimulate Mechanisms of Gastric Acid Secretion via Bitter Taste Receptors TAS2R16 and TAS2R38” (Journal of Agricultural and Food Chemistry, 2022).

Data set [1] concerns TAS2R8. As to the kind of experiment: RT-qPCR gene expression of TAS2R8 in HGT-1 cells. It counts as cell-based, human. Particulars: VAPFPEVF 17.5 µM, YFYPEL 0.03 µM, YQEPVLGPVRGPFPIIV 0.4 µM, normalized to PPIA and GAPDH and untreated cells, mean, n = 3–5. As for the experimental part:
For mRNA expression analysis, 800,000 cells were seeded in a T25 cell culture flask (25 cm^2) 1 day before the experiment. After incubation with 17.5 μM […], 0.03 μM YFYPEL, or 0.4 μM […] for 15, 30, 60, and 120 min, RNA was isolated using the peqGOLD RNA Kit (VWR Peqlab, USA) following the manufacturer’s protocol. Determination of RNA concentration (A260/A280 between 2.03 and 2.09) was performed on a NanoDrop One^c (Thermo Fisher Scientific Inc., USA). RNA integrity number (RIN 9.9–10.0, version 2.6, assay class Eukaryote Total RNA Nano) was analyzed using a 2100 Bioanalyzer (Agilent Technologies, USA). Removal of gDNA and synthesis of cDNA were performed using the iScript gDNA Clear cDNA Synthesis Kit (BioRad, Feldkirchen, Germany) following the manufacturer’s protocol. Real-time-qPCR (RT-qPCR) was performed with 50 ng cDNA amplified with SsoAdvanced Universal SYBR Green Supermix (Bio-Rad Laboratories, Inc., USA). The sequences of the forward and reverse primers of the 25 TAS2Rs were taken from Liszt et al.([13]) (Supporting Information Table-SI 3). Verified primers for the TAS1Rs (TAS1R1: qHsaCID0013443; TAS1R2: qHsaCID0016106; TAS1R3: qHsaCED0002321) and for MAPK1 (qHsaCEP0050000) were obtained from Bio-Rad Laboratories. PPIA[37] and GAPDH[38] were used as reference genes. The effects of the peptides on gene expression were analyzed in comparison to untreated control cells.

The subject of data set [2] is MUC5AC. As to conditions: human intestinal cells; cited from earlier work. The text has this:
(§1) In addition, transport through Caco-2 cell monolayers was ...

For data set [3], the system named is angiotensin-converting-enzyme. The arrangement: method as in PMID 8201050. Particulars: cited from earlier work.
Excerpt: as §1

For data set [4] the following is noted: cited from earlier work.
Excerpt: as §1

The subject of data set [5] is Caco-2 cell monolayers. Particulars: cited from earlier work.
Excerpt: as §1

On the set-up of data set [6]: method as in PMID 1427989. As to conditions: cited from earlier work.
Excerpt: as §1

Turning to “YFYPEL [bitter casein peptide αS1-CN144–149]”, the “change in gene expression of TAS2R8” value in data set [1] (incubation 15 min) is 1.62 fold change; in data set [1] (incubation 30 min), 1.90 fold change; in data set [1] (incubation 60 min), 1.87 fold change; in data set [1] (incubation 120 min), 1.69 fold change. In data set [2], the “effect on expression of MUC5AC” value is given as “increase the expression of MUC5AC”.
Regarding “VAPFPEVF [bitter casein peptide αS1-CN25–32]”, the “change in gene expression of TAS2R8” value in data set [1] (incubation 15 min) is recorded as 1.24 fold change; in data set [1] (incubation 30 min), 2.25 fold change; in data set [1] (incubation 60 min) it was 1.34 fold change; in data set [1] (incubation 120 min) it was 2.04 fold change.
Consider “YQEPVLGPVRGPFPIIV [bitter casein peptide βA1/A2-CN193–209]”, for which the “change in gene expression of TAS2R8” value in data set [1] (incubation 15 min) stood at 1.39 fold change; in data set [1] (incubation 30 min), 2.45 fold change; in data set [1] (incubation 60 min), 1.87 fold change; in data set [1] (incubation 120 min), 1.93 fold change. Besides, the angiotensin-converting-enzyme inhibitory activity entry in data set [3] is on record as “angiotensin-converting-enzyme inhibitory activity”. Also, the antimicrobial ability entry in data set [4] was “antimicrobial”. Further, in data set [5], the “transport through Caco-2 cell monolayers” value was “transport through Caco-2 cell monolayers was observed”. In addition, the immunomodulatory ability entry in data set [6] was “immunomodulatory abilities”.
